# Reference: patent publication US4882349A, “Pyrrolacetic amides having antiinflammatory activity” (priority 1982, dated 1989)
# Like-named read-outs stand apart in the source and are kept apart here.
# Assays:
# solubility = assay type: physicochemical
# [1] = test system: brewers' yeast-induced hyperthermia; experiment: antipyretic activity, brewers' yeast-induced hyperthermia; assay type: in vivo, albino male Wistar rats
# Experimental: The animals were caged under the same conditions as those described in the preceding tests. Five hours following […], determined by a rectal probe connected to a YSI thermometer (73 ATP model, Yellow Springs Instrument Company) were selected for the experiment. The animals were then randomized into groups of 10 and the compounds under examination and the vehicle were administered via the oral and parenteral routes testing each dose in two groups. Body temperature was determined at one, two and three hours after administration of the substances. […]
# [2] = test system: carrageenin-induced oedema; experiment: carrageenin-induced oedema test (anti-inflammatory activity); assay type: in vivo, albino male Wistar rats
# Experimental: This effect was evaluated by means of an experimental model reproducing acute inflammation: for this purpose the carrageenin- induced oedema test was employed following the method described by C.
# Albino male Wistar rats weighing 140-160 g were caged for 10 days at 22±1° C. and given a balanced diet and water ad libitum. Eighteen hours before the experiment the animals were randomized into groups of ten and fasted but with free access to water. Each dose was tested in three groups of rats. Each compound was given either orally, by gavage, or parenterally--intraperitoneal injection--administering as follows:
# controls: 0.5% carboxymethylcellulose suspension in physiological saline, 10 ml/kg
# treated: suspension of the compounds to be tested in the same vehicle and at the same volume (10 ml/kg) used for the controls at the doses specified below.
# One hour after administration of the compounds and vehicle, in order to provoke the oedema for determining the protective effect of the substances under examination, each rat received, by subcutaneous injection into the plantar surface of the left paw, 0.1 ml of 1% sterile carrageenin suspension.
# gastric lesions = assay type: in vivo, male Wistar rats; settings: 4 consecutive days; for mean severity: scale 0 (no lesion) to 5 (perforations)
# Experimental: Male Wistar rats weighing 180 g were randomized into groups of 10. Three doses of each compound were administered. One group received the vehicle alone (10 ml/kg b.w.). Each dose was given orally for four days consecutively and the rats were sacrificed on the fifth day for necropsy. The ulcerogenic effect was evaluated by the following scale:
# (1) each haemorrhagic point at least 1 mm in diameter was scored as 1 lesion,
# (2) haemorrhagic points less than 1 mm in diameter were scored in the following manner:
# (c) 20 to 29=three lesions
# By means of this scale it was possible to obtain the gastric damage index:
# I=mean no. of lesions+mean of severity+% incidence/10
# Mice = settings: mouse, in vivo
# [3] = test system: phenyl-p-quinone-induced writhing (abdominal contractions); experiment: phenylquinone-induced writhing test (analgesic activity), compound given 30 min before phenyl-p-quinone; assay type: in vivo, male Wistar rats
# Experimental: Male Wistar rats weighing 110±5 g were caged for 10 days at 22±1° C. and given a balanced diet with free access to water. Twenty-four hours before the experiment the animals were randomized into groups of 10 and fasted for 14 hours but with free access to water. Each dose was tested in 3 groups of rats. Thirty minutes following administration either orally or parenterally of the products to be tested and the vehicle alone (0.5% carboxymethyl-cellulose in physiological saline) in the control animals, each rat was given 2 ml of a 5% absolute ethanol aqueous solution containing 0.36% of phenyl-p-quinone (Sigma Chemical Company) in order to provoke writhings. Fifteen minutes after administration of phenyl-p-quinone the number of contractions were counted for 20 minutes. The inhibiting effect of the compounds under examination on the abdominal contractions induced by phenyl-p-quinone was calculated by the following formula: % protection= [formula]
# Table V lists the tested compounds, doses, routes of administration and their efficacy expressed as percentage of protection, taking into account that phenyl-p-quinone was administered thirty minutes after the compounds.
# Rats = settings: rat, in vivo
smiles,measurement,setting,value
"CCOC(=O)CNC(=O)Cc1ccc(C(=O)c2ccc(C)cc2)n1C [Compound 1-b, 1-methyl-5-p-toluoylpyrrole-2-acetamidoacetic acid ethyl ester]",Solubility,solubility,soluble in the usual organic solvents
"Cc1ccc(C(=O)c2ccc(CC(=O)NNCC(=O)N3CCN(C)CC3)n2C)cc1 [Compound 1-o, 1-methyl-5-p-toluoylpyrrole-2-acetic acid-2 [N-(4-methyl-1-piperazinyl)acetamide] hydrazide]",% Temperature decrease,"[1]; 50 mg/Kg i.p., 1 h",13.0%
same,% Temperature decrease,"[1]; 50 mg/Kg i.p., 2 h",27.5%
same,% Temperature decrease,"[1]; 50 mg/Kg i.p., 3 h",39.6%
same,% Temperature decrease,"[1]; 50 mg/Kg per os, 1 h",12.0%
same,% Temperature decrease,"[1]; 50 mg/Kg per os, 2 h",23.1%
same,% Temperature decrease,"[1]; 50 mg/Kg per os, 3 h",35.2%
same,% Temperature decrease,"[1]; 75 mg/Kg i.p., 1 h",18.0%
same,% Temperature decrease,"[1]; 75 mg/Kg i.p., 2 h",27.0%
same,% Temperature decrease,"[1]; 75 mg/Kg i.p., 3 h",49.6%
same,% Temperature decrease,"[1]; 75 mg/Kg per os, 1 h",16.0%
same,% Temperature decrease,"[1]; 75 mg/Kg per os, 2 h",25.2%
same,% Temperature decrease,"[1]; 75 mg/Kg per os, 3 h",40.2%
same,% Temperature decrease,"[1]; 100 mg/Kg i.p., 1 h",30.1%
same,% Temperature decrease,"[1]; 100 mg/Kg i.p., 2 h",45.0%
same,% Temperature decrease,"[1]; 100 mg/Kg i.p., 3 h",62.1%
same,% Temperature decrease,"[1]; 100 mg/Kg per os, 1 h",29.1%
same,% Temperature decrease,"[1]; 100 mg/Kg per os, 2 h",33.7%
same,% Temperature decrease,"[1]; 100 mg/Kg per os, 3 h",59.0%
same,oedema % inhibition,"[2]; 25 mg/Kg per os, 2 h",37.1%
same,oedema % inhibition,"[2]; 25 mg/Kg per os, 4 h",42.0%
same,oedema % inhibition,"[2]; 25 mg/Kg per os, 6 h",44.0%
same,oedema % inhibition,"[2]; 25 mg/Kg per os, 24 h",12.1%
same,oedema % inhibition,"[2]; 25 mg/Kg per os, 48 h",0.0%
same,oedema % inhibition,"[2]; 25 mg/Kg per os, 72 h",0.0%
same,oedema % inhibition,"[2]; 25 mg/Kg, Table IV (route not given), 2 h",39.0%
same,oedema % inhibition,"[2]; 25 mg/Kg, Table IV (route not given), 4 h",37.1%
same,oedema % inhibition,"[2]; 25 mg/Kg, Table IV (route not given), 6 h",36.0%
same,oedema % inhibition,"[2]; 25 mg/Kg, Table IV (route not given), 24 h",11.1%
same,oedema % inhibition,"[2]; 25 mg/Kg, Table IV (route not given), 48 h",0.0%
same,oedema % inhibition,"[2]; 25 mg/Kg, Table IV (route not given), 72 h",0.0%
same,oedema % inhibition,"[2]; 50 mg/Kg per os, 2 h",49.2%
same,oedema % inhibition,"[2]; 50 mg/Kg per os, 4 h",50.1%
same,oedema % inhibition,"[2]; 50 mg/Kg per os, 6 h",50.0%
same,oedema % inhibition,"[2]; 50 mg/Kg per os, 24 h",22.1%
same,oedema % inhibition,"[2]; 50 mg/Kg per os, 48 h",4.5%
same,oedema % inhibition,"[2]; 50 mg/Kg per os, 72 h",0.0%
same,oedema % inhibition,"[2]; 50 mg/Kg, Table IV (route not given), 2 h",52.1%
same,oedema % inhibition,"[2]; 50 mg/Kg, Table IV (route not given), 4 h",55.0%
same,oedema % inhibition,"[2]; 50 mg/Kg, Table IV (route not given), 6 h",43.0%
same,oedema % inhibition,"[2]; 50 mg/Kg, Table IV (route not given), 24 h",17.9%
same,oedema % inhibition,"[2]; 50 mg/Kg, Table IV (route not given), 48 h",0.0%
same,oedema % inhibition,"[2]; 50 mg/Kg, Table IV (route not given), 72 h",0.0%
same,oedema % inhibition,"[2]; 100 mg/Kg per os, 2 h",70.1%
same,oedema % inhibition,"[2]; 100 mg/Kg per os, 4 h",73.4%
same,oedema % inhibition,"[2]; 100 mg/Kg per os, 6 h",77.5%
same,oedema % inhibition,"[2]; 100 mg/Kg per os, 24 h",33.5%
same,oedema % inhibition,"[2]; 100 mg/Kg per os, 48 h",8.6%
same,oedema % inhibition,"[2]; 100 mg/Kg per os, 72 h",0.0%
same,oedema % inhibition,"[2]; 100 mg/Kg, Table IV (route not given), 2 h",79.1%
same,oedema % inhibition,"[2]; 100 mg/Kg, Table IV (route not given), 4 h",78.0%
same,oedema % inhibition,"[2]; 100 mg/Kg, Table IV (route not given), 6 h",77.3%
same,oedema % inhibition,"[2]; 100 mg/Kg, Table IV (route not given), 24 h",24.1%
same,oedema % inhibition,"[2]; 100 mg/Kg, Table IV (route not given), 48 h",0.0%
same,oedema % inhibition,"[2]; 100 mg/Kg, Table IV (route not given), 72 h",0.0%
same,mean no. of lesions,gastric lesions; 50 mg/Kg orally,1
same,gastric damage index,"gastric lesions; 50 mg/Kg orally, I=mean no. of lesions+mean of severity+% incidence/10",9
same,mean severity,gastric lesions; 50 mg/Kg orally,1
same,mean no. of lesions,gastric lesions; 100 mg/Kg orally,2
same,mean severity,gastric lesions; 100 mg/Kg orally,1
same,mean no. of lesions,gastric lesions; 200 mg/Kg orally,2
same,LD50,Mice; ip,590 mg/kg
same,LD50,Mice; po,910 mg/kg
same,% Protection,[3]; 5 mg/Kg i.p.,35.1%
same,% Protection,[3]; 5 mg/Kg per os,29.3%
same,% Protection,[3]; 10 mg/Kg i.p.,63.9%
same,% Protection,[3]; 10 mg/Kg per os,60.4%
same,% Protection,[3]; 20 mg/Kg i.p.,87.0%
same,% Protection,[3]; 20 mg/Kg per os,86.2%
same,LD50,Rats; ip,700 mg/kg
same,LD50,Rats; po,978 mg/kg
"COc1ccc2c(c1)c(CC(=O)O)c(C)n2C(=O)c1ccc(Cl)cc1 [Indomethacin, reference compound]",oedema % inhibition,"[2]; 2.5 mg/Kg per os, 2 h",20.6%
same,oedema % inhibition,"[2]; 2.5 mg/Kg per os, 4 h",33.7%
same,oedema % inhibition,"[2]; 2.5 mg/Kg per os, 6 h",25.2%
same,oedema % inhibition,"[2]; 2.5 mg/Kg per os, 24 h",6.0%
same,oedema % inhibition,"[2]; 2.5 mg/Kg per os, 48 h",0.0%
same,oedema % inhibition,"[2]; 2.5 mg/Kg per os, 72 h",0.0%
same,oedema % inhibition,"[2]; 2.5 mg/Kg, Table IV (route not given), 2 h",25.7%
same,oedema % inhibition,"[2]; 2.5 mg/Kg, Table IV (route not given), 4 h",38.0%
same,oedema % inhibition,"[2]; 2.5 mg/Kg, Table IV (route not given), 6 h",30.0%
same,oedema % inhibition,"[2]; 2.5 mg/Kg, Table IV (route not given), 24 h",5.0%
same,oedema % inhibition,"[2]; 2.5 mg/Kg, Table IV (route not given), 48 h",0.0%
same,oedema % inhibition,"[2]; 2.5 mg/Kg, Table IV (route not given), 72 h",0.0%
same,oedema % inhibition,"[2]; 5 mg/Kg per os, 2 h",34.3%
same,oedema % inhibition,"[2]; 5 mg/Kg per os, 4 h",45.9%
same,oedema % inhibition,"[2]; 5 mg/Kg per os, 6 h",42.1%
same,oedema % inhibition,"[2]; 5 mg/Kg per os, 24 h",4.2%
same,oedema % inhibition,"[2]; 5 mg/Kg per os, 48 h",0.0%
same,oedema % inhibition,"[2]; 5 mg/Kg per os, 72 h",0.0%
same,oedema % inhibition,"[2]; 5 mg/Kg, Table IV (route not given), 2 h",39.0%
same,oedema % inhibition,"[2]; 5 mg/Kg, Table IV (route not given), 4 h",50.1%
same,oedema % inhibition,"[2]; 5 mg/Kg, Table IV (route not given), 6 h",48.0%
same,oedema % inhibition,"[2]; 5 mg/Kg, Table IV (route not given), 24 h",7.0%
same,oedema % inhibition,"[2]; 5 mg/Kg, Table IV (route not given), 48 h",0.0%
same,oedema % inhibition,"[2]; 5 mg/Kg, Table IV (route not given), 72 h",0.0%
same,oedema % inhibition,"[2]; 10 mg/Kg per os, 2 h",66.4%
same,oedema % inhibition,"[2]; 10 mg/Kg per os, 4 h",53.2%
same,oedema % inhibition,"[2]; 10 mg/Kg per os, 6 h",51.6%
same,oedema % inhibition,"[2]; 10 mg/Kg per os, 24 h",20.0%
same,oedema % inhibition,"[2]; 10 mg/Kg per os, 48 h",6.0%
same,oedema % inhibition,"[2]; 10 mg/Kg per os, 72 h",0.0%
same,oedema % inhibition,"[2]; 10 mg/Kg, Table IV (route not given), 2 h",70.8%
same,oedema % inhibition,"[2]; 10 mg/Kg, Table IV (route not given), 4 h",66.6%
same,oedema % inhibition,"[2]; 10 mg/Kg, Table IV (route not given), 6 h",65.0%
same,oedema % inhibition,"[2]; 10 mg/Kg, Table IV (route not given), 24 h",16.0%
same,oedema % inhibition,"[2]; 10 mg/Kg, Table IV (route not given), 48 h",0.0%
same,oedema % inhibition,"[2]; 10 mg/Kg, Table IV (route not given), 72 h",0.0%
